Source: ChEMBL document CHEMBL1201862, “PubChem BioAssay data set” (2004)
The source made the active and inactive calls. Rule as the data show it: actives have a measured IC50 and inactives only a lower limit.

Molecular target: Envelope glycoprotein gp160 (Human immunodeficiency virus 1, UniProt Q6QLK5)
Experiment: inhibitors of HIV fusion peptide binding, primary screen, biochemical, uHTS, fluorescence dequenching (AID 1986)

Chain of Envelope glycoprotein gp160 (Q6QLK5 whole entry, the tested form may be a part): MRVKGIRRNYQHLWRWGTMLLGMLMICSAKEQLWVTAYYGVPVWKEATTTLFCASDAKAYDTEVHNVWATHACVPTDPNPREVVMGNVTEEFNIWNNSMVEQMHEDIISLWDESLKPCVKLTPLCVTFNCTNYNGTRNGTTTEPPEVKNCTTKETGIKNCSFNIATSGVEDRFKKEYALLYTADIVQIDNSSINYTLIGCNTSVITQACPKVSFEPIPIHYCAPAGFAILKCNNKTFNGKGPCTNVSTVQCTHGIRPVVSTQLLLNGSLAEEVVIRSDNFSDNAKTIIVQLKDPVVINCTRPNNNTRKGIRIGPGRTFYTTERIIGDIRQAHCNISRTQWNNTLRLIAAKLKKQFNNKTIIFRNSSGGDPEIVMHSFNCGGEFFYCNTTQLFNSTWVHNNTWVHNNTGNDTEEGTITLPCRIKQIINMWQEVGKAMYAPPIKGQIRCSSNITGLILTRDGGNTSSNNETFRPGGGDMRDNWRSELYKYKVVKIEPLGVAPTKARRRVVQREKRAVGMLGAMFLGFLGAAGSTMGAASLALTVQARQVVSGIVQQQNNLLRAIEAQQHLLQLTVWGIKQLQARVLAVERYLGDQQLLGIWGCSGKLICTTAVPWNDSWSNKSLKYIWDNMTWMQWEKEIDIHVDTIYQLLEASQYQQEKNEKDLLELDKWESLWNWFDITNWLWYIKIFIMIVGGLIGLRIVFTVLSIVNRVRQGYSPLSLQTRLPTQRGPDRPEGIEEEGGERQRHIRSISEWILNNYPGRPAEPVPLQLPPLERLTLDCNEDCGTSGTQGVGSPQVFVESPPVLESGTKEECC

Row | Structure (SMILES) | IC50
1 | CCCOc1cccc(C2C(C(=O)c3cc4ccccc4o3)=C(O)C(=O)N2c2cc(C)on2)c1 (centres undefined) | 16.9 µM (active)
2 | O=C(CCN1C(=O)/C(=C/c2ccco2)SC1=S)Nc1ccc(C(=O)O)c(O)c1 | 14.7 µM (active)
3 | O=C(O)CN1C(=O)/C(=C\c2cc(Br)ccc2OCc2ccccc2Cl)SC1=S | 14.3 µM (active)
4 | O=C(O)CN1C(=O)/C(=C\c2cc(Br)ccc2OCc2ccc(F)cc2)SC1=S | 10.7 µM (active)
